According to PubChem BioAssay AID328 (DTP/NCI, 2004):
Where “and” joins values, the source holds several entries; their conditions need not be identical. Equal entries are not always repeated. Inconclusive results and toxic doses are left out. How the source made its calls: active means survival T/C of 150% or more; inactive means T/C below 125% in these data.

Tested on: BDF1 mice, P388 leukemia ip, median survival T/C
Assay: NCI In Vivo Anticancer Drug Screen. Data for tumor model P388 Leukemia (intraperitoneal) in B6D2F1 (BDF1) mice
Conditions: endpoint: median survival time, higher = longer survival
Procedure, shortened: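 Each value expresses how treatment altered survival: treated-mouse outcome over vehicle-mouse outcome, both groups bearing the transplanted tumour.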

[1] = dose: 25.0 mg/kg/injection, schedule: Q01DX009 (ip), vehicle: saline with Tween-80
[2] = dose: 6.25 mg/kg/injection, schedule: Q01DX009 (ip), vehicle: saline
[3] = dose: 12.5 mg/kg/injection, schedule: Q01DX009 (ip), vehicle: saline
[4] = dose: 25.0 mg/kg/injection, schedule: Q01DX009 (ip), vehicle: saline
[5] = dose: 100.0 mg/kg/injection, schedule: Q01DX009 (ip), vehicle: saline
[6] = dose: 200.0 mg/kg/injection, schedule: Q01DX009 (ip), vehicle: saline
[7] = dose: 400.0 mg/kg/injection, schedule: Q04DX003 (ip), vehicle: saline
[8] = dose: 100.0 mg/kg/injection, schedule: Q01DX009 (ip), vehicle: Klucel (hydroxypropylcellulose) (HPC)
[9] = dose: 50.0 mg/kg/injection, schedule: Q01DX009 (ip), vehicle: saline
[10] = dose: 50.0 mg/kg/injection, schedule: Q01DX009 (ip), vehicle: saline with Tween-80
[11] = dose: 100.0 mg/kg/injection, schedule: Q01DX009 (ip), vehicle: saline with Tween-80
[12] = dose: 200.0 mg/kg/injection, schedule: Q01DX009 (ip), vehicle: saline with Tween-80
[13] = dose: 50.0 mg/kg/injection, schedule: Q04DX003 (ip), vehicle: saline

Measured: T/C

CN(C)c1ccc(/C=C/c2nccc3ccccc23)cc1
inactive: dose: 0.78 mg/kg/injection, schedule: Q01DX009 (ip), vehicle: saline with Tween-80 114 % of control | dose: 1.56 mg/kg/injection, schedule: Q01DX009 (ip), vehicle: saline with Tween-80 112 % of control | dose: 3.13 mg/kg/injection, schedule: Q01DX009 (ip), vehicle: saline with Tween-80 102 % of control | dose: 6.25 mg/kg/injection, schedule: Q01DX009 (ip), vehicle: saline with Tween-80 107 % of control and 110 % of control

C1OCN2CSCC12 (centres undefined)
inactive: dose: 100.0 mg/kg/injection, schedule: Q04DX002 (ip), vehicle: suspension in saline 110 % of control | dose: 600.0 mg/kg/injection, schedule: Q04DX002 (ip), vehicle: suspension in saline 117 % of control

CNC(=O)OCc1c(COC(=O)NC)c(-c2ccc(F)cc2)n2c1CCC2
inactive: dose: 1.56 mg/kg/injection, schedule: Q01DX009 (ip), vehicle: Klucel (hydroxypropylcellulose) (HPC) 122 % of control

O=NN(CCCl)C(=O)NC1CSCSC1
active: dose: 1.7 mg/kg/injection, schedule: Q01DX009 (ip), vehicle: saline with Tween-80 151 % of control | dose: 2.6 mg/kg/injection, schedule: Q01DX009 (ip), vehicle: saline with Tween-80 159 % of control | dose: 4.0 mg/kg/injection, schedule: Q01DX009 (ip), vehicle: saline with Tween-80 250 % of control and 192 % of control | dose: 5.0 mg/kg/injection, schedule: Q04DX003 (ip), vehicle: saline with Tween-80 152 % of control | dose: 6.0 mg/kg/injection, schedule: Q01DX009 (ip), vehicle: saline with Tween-80 230 % of control and 250 % of control | dose: 8.0 mg/kg/injection, schedule: Q04DX003 (ip), vehicle: saline with Tween-80 185 % of control | dose: 9.0 mg/kg/injection, schedule: Q01DX009 (ip), vehicle: saline with Tween-80 187 % of control | dose: 12.0 mg/kg/injection, schedule: Q01DX009 (ip), vehicle: saline with Tween-80 184 % of control | dose: 12.0 mg/kg/injection, schedule: Q04DX003 (ip), vehicle: saline with Tween-80 272 % of control and 285 % of control | dose: 18.0 mg/kg/injection, schedule: Q04DX003 (ip), vehicle: saline with Tween-80 204 % of control | dose: 25.0 mg/kg/injection, schedule: Q04DX003 (ip), vehicle: saline with Tween-80 240 % of control and 172 % of control
inactive: dose: 0.7 mg/kg/injection, schedule: Q01DX009 (ip), vehicle: saline with Tween-80 92 % of control | dose: 3.0 mg/kg/injection, schedule: Q04DX003 (ip), vehicle: saline with Tween-80 119 % of control | [1] 90 % of control
272 % of control and 95 % of control: dose: 37.0 mg/kg/injection, schedule: Q04DX003 (ip), vehicle: saline with Tween-80

Cc1cc(-c2ccccc2)nnc1NCCN1CCOCC1
inactive: [2] 106 % of control | [3] 90 % of control | [4] 88 % of control

OCc1cccc(F)c1
inactive: [5] 96 % of control | dose: 100.0 mg/kg/injection, schedule: Q04DX003 (ip), vehicle: saline 109 % of control | [6] 107 % of control | dose: 200.0 mg/kg/injection, schedule: Q04DX003 (ip), vehicle: saline 109 % of control | [7] 104 % of control

O=C1C(O)=Cc2cn(CCO)c(=O)c3ccc(-c4ccccc4)c1c23
inactive: dose: 50.0 mg/kg/injection, schedule: Q01DX001 (ip), vehicle: Klucel (hydroxypropylcellulose) (HPC) 100 % of control | dose: 100.0 mg/kg/injection, schedule: Q01DX001 (ip), vehicle: Klucel (hydroxypropylcellulose) (HPC) 100 % of control | dose: 200.0 mg/kg/injection, schedule: Q01DX001 (ip), vehicle: Klucel (hydroxypropylcellulose) (HPC) 104 % of control

Cc1[nH]c(=O)[nH]c(=O)c1C
inactive: dose: 50.0 mg/kg/injection, schedule: Q01DX009 (ip), vehicle: Klucel (hydroxypropylcellulose) (HPC) 104 % of control | [8] 109 % of control | dose: 200.0 mg/kg/injection, schedule: Q01DX009 (ip), vehicle: Klucel (hydroxypropylcellulose) (HPC) 104 % of control

CC(=O)C1=CC2(OC3CCC(O)(C(=O)CO)C(C)O3)C(=O)c3c(cc4cccc(O)c4c3O)CC2C(O)C1O (centres undefined)
inactive: dose: 19.0 mg/kg/injection, schedule: Q01DX010 (ip), vehicle: carboxymethylcellulose (CMC) 100 % of control | dose: 38.0 mg/kg/injection, schedule: Q01DX010 (ip), vehicle: carboxymethylcellulose (CMC) 100 % of control | dose: 75.0 mg/kg/injection, schedule: Q01DX010 (ip), vehicle: carboxymethylcellulose (CMC) 104 % of control | dose: 150.0 mg/kg/injection, schedule: Q01DX010 (ip), vehicle: carboxymethylcellulose (CMC) 104 % of control

C=CCNC(=O)NCC=C
active: dose: 100.0 mg/kg/injection, schedule: Q01DX010 (ip), vehicle: saline 161 % of control

O=C1C=C(Nc2ccc(O)cc2)c2ccccc2C1=O
inactive: [2] 95 % of control | [3] 104 % of control | [4] 100 % of control

CCCCCCCCCCNc1ccc(NCCCCCCCCCC)cc1
inactive: [8] 100 % of control | dose: 100.0 mg/kg/injection, schedule: Q04DX003 (ip), vehicle: Klucel (hydroxypropylcellulose) (HPC) 120 % of control | dose: 400.0 mg/kg/injection, schedule: Q01DX009 (ip), vehicle: Klucel (hydroxypropylcellulose) (HPC) 100 % of control

CCCCN1CCN(c2ccc([N+](=O)[O-])c3no[n+]([O-])c23)CC1
inactive: dose: 16.0 mg/kg/injection, schedule: Q04DX003 (ip), vehicle: saline with Tween-80 121 % of control | dose: 64.0 mg/kg/injection, schedule: Q04DX003 (ip), vehicle: saline with Tween-80 100 % of control
active: dose: 32.0 mg/kg/injection, schedule: Q04DX003 (ip), vehicle: saline with Tween-80 150 % of control

NC(CS(=O)(=O)c1ccc(N(CCCl)CCCl)cc1)C(=O)O (centres undefined)
inactive: dose: 100.0 mg/kg/injection, schedule: Q01DX001 (ip), vehicle: saline with Tween-80 108 % of control | dose: 200.0 mg/kg/injection, schedule: Q01DX001 (ip), vehicle: saline with Tween-80 101 % of control | dose: 400.0 mg/kg/injection, schedule: Q01DX001 (ip), vehicle: saline with Tween-80 90 % of control

O=C(O)C1=NNC(C(=O)O)=NN1
inactive: [9] 98 % of control | [5] 100 % of control | [6] 98 % of control

COc1cc(O)c2c(c1)C(=O)c1cc3c(c(O)c1C2=O)C(OC1OC(C)C(OC)C(O)C1OC)C(OC)C(C)(O)C3=O (centres undefined)
inactive: dose: 17.5 mg/kg/injection, schedule: Q01DX009 (ip), vehicle: saline 86 % of control | dose: 35.0 mg/kg/injection, schedule: Q01DX009 (ip), vehicle: saline 93 % of control | [10] 97 % of control | dose: 70.0 mg/kg/injection, schedule: Q01DX009 (ip), vehicle: saline 93 % of control | [11] 120 % of control | [12] 116 % of control

CC(C)S(=O)(=O)/C(Cl)=C(/Cl)C(Cl)=C(Cl)Cl
inactive: dose: 13.0 mg/kg/injection, schedule: Q01DX009 (ip), vehicle: Klucel (hydroxypropylcellulose) (HPC) 100 % of control | dose: 20.0 mg/kg/injection, schedule: Q01DX009 (ip), vehicle: Klucel (hydroxypropylcellulose) (HPC) 100 % of control | dose: 30.0 mg/kg/injection, schedule: Q01DX009 (ip), vehicle: Klucel (hydroxypropylcellulose) (HPC) 95 % of control

O=C(O)/C=C\c1c[nH]c2nccnc12
inactive: [3] 103 % of control | [4] 95 % of control | dose: 25.0 mg/kg/injection, schedule: Q04DX003 (ip), vehicle: saline 97 % of control | [9] 95 % of control | [13] 100 % of control

CCOC(=O)c1c(NC(=O)CCC(=O)Nc2sc(C)c(C)c2C(=O)OCC)sc(C)c1C
inactive: [1] 109 % of control | [10] 90 % of control | [13] 87 % of control | [11] 90 % of control | [7] 91 % of control

COC(=O)C(CSCSC)NC(=O)/C=C\c1ccccc1 (centres undefined)
inactive: [10] 100 % of control | [11] 104 % of control | dose: 100.0 mg/kg/injection, schedule: Q04DX003 (ip), vehicle: saline with Tween-80 95 % of control | [12] 109 % of control | dose: 200.0 mg/kg/injection, schedule: Q04DX003 (ip), vehicle: saline with Tween-80 91 % of control | dose: 400.0 mg/kg/injection, schedule: Q01DX009 (ip), vehicle: saline with Tween-80 90 % of control

CCCCN(CCCC)CC(O)c1c2cccc(Cl)c2cc2c(Cl)cccc12 (centres undefined)
inactive: [10] 107 % of control | [11] 102 % of control | [12] 123 % of control
